Measured values: patent publication US20110136762A1, “FUNGICIDAL PYRIDAZINES” (E.I. Du Pont de Nemours and Company, priority 2008, published 2011)
Marks after values point to notes of the source that are not given here.

Key:
Format in all cases: in vivo
Alternaria solani = assay: Test E: tomato early blight, preventive spray on tomato seedlings, visual disease rating; conditions: 100 = 100% disease control, 0 = no disease control relative to controls; for pest or weed control at 40 ppm / pest or weed control at 200 ppm: Alternaria solani
Excerpt: General protocol for preparing test suspensions for Tests A-F: […] The resulting test suspensions were then used in Tests A-F. The test suspensions were sprayed to the point of run-off on the test plants. All results are for 200 ppm (equivalent to a rate of 500 g/ha) except where followed by “*” which indicates 40 ppm. The test suspension was sprayed to the point of run-off on tomato seedlings. […] A dash (-) indicates no test results. All results are for 200 ppm except where followed by “*”, which indicates 40 ppm.

Septoria nodorum = assay: Test D: wheat glume blotch, preventive spray on wheat seedlings, visual disease rating; conditions: 100 = 100% disease control, 0 = no disease control relative to controls; for pest or weed control at 40 ppm / pest or weed control at 200 ppm: Parastagonospora nodorum
Excerpt: General protocol for preparing test suspensions for Tests A-F: […] The resulting test suspensions were then used in Tests A-F. The test suspensions were sprayed to the point of run-off on the test plants. All results are for 200 ppm (equivalent to a rate of 500 g/ha) except where followed by “*” which indicates 40 ppm. The test suspension was sprayed to the point of run-off on wheat seedlings. The following day the seedlings were inoculated with a spore suspension of Septoria nodorum (the causal agent of wheat glume blotch) and incubated in a saturated atmosphere at 20° C. for 48 h, and then moved to a growth chamber at 20° C. for 7 days, after which time visual disease ratings were made. […] A dash (-) indicates no test results. All results are for 200 ppm except where followed by “*”, which indicates 40 ppm.

Erysiphe graminis = assay: Test A: wheat powdery mildew, preventive spray on wheat seedlings, visual disease rating; conditions: 100 = 100% disease control, 0 = no disease control relative to controls; for pest or weed control at 40 ppm / pest or weed control at 200 ppm: Blumeria graminis, 192 h
Excerpt: General protocol for preparing test suspensions for Tests A-F: […] The resulting test suspensions were then used in Tests A-F. The test suspensions were sprayed to the point of run-off on the test plants. All results are for 200 ppm (equivalent to a rate of 500 g/ha) except where followed by “*” which indicates 40 ppm. The test suspension was sprayed to the point of run-off on wheat seedlings. The following day the seedlings were inoculated with a spore dust of Erysiphe graminis, (the causal agent of wheat powdery mildew) and incubated in a growth chamber at 20° C. for 8 days, after which time visual disease ratings were made. […] A dash (-) indicates no test results. All results are for 200 ppm except where followed by “*”, which indicates 40 ppm.

Botrytis cinerea = assay: Test F: tomato Botrytis, preventive spray on tomato seedlings, visual disease rating; conditions: 100 = 100% disease control, 0 = no disease control relative to controls; for pest or weed control at 40 ppm / pest or weed control at 200 ppm: Botrytis cinerea
Excerpt: General protocol for preparing test suspensions for Tests A-F: […] The resulting test suspensions were then used in Tests A-F. The test suspensions were sprayed to the point of run-off on the test plants. All results are for 200 ppm (equivalent to a rate of 500 g/ha) except where followed by “*” which indicates 40 ppm. The test suspension was sprayed to the point of run-off on tomato seedlings. The following day the seedlings were inoculated with a spore suspension of Botrytis cinerea (the causal agent of tomato Botrytis) and incubated in saturated atmosphere at 20° C. for 48 h, and then moved to a growth chamber at 24° C. for 3 days, after which time visual disease ratings were made. […] A dash (-) indicates no test results. All results are for 200 ppm except where followed by “*”, which indicates 40 ppm.

Septoria tritici = assay: Test C: wheat leaf blotch, preventive spray on wheat seedlings, visual disease rating; conditions: 100 = 100% disease control, 0 = no disease control relative to controls; for pest or weed control at 40 ppm / pest or weed control at 200 ppm: Zymoseptoria tritici, 504 h
Excerpt: General protocol for preparing test suspensions for Tests A-F: […] The resulting test suspensions were then used in Tests A-F. The test suspensions were sprayed to the point of run-off on the test plants. All results are for 200 ppm (equivalent to a rate of 500 g/ha) except where followed by “*” which indicates 40 ppm. The test suspension was sprayed to the point of run-off on wheat seedlings. The following day the seedlings were inoculated with a spore suspension of Septoria tritici (the causal agent of wheat leaf blotch) and incubated in saturated atmosphere at 20° C. for 48 h, and moved to a growth chamber at 20° C. for 19 additional days, after which time visual disease ratings were made. […] A dash (-) indicates no test results. All results are for 200 ppm except where followed by “*”, which indicates 40 ppm.

[1] = tested on: Puccinia recondita f. sp. tritici; assay: Test B: wheat leaf rust, preventive spray on wheat seedlings, visual disease rating; conditions: 100 = 100% disease control, 0 = no disease control relative to controls; for pest or weed control at 40 ppm / pest or weed control at 200 ppm: 192 h
Excerpt: General protocol for preparing test suspensions for Tests A-F: […] The resulting test suspensions were then used in Tests A-F. The test suspensions were sprayed to the point of run-off on the test plants. All results are for 200 ppm (equivalent to a rate of 500 g/ha) except where followed by “*” which indicates 40 ppm. The test suspension was sprayed to the point of run-off on wheat seedlings. The following day the seedlings were inoculated with a spore suspension of Puccinia recondita f. sp. tritici (the causal agent of wheat leaf rust) and incubated in a saturated atmosphere at 20° C. for 24 h, and then moved to a growth chamber at 20° C. for 7 days, after which time visual disease ratings were made. […] A dash (-) indicates no test results. All results are for 200 ppm except where followed by “*”, which indicates 40 ppm.

COc1ccncc1-c1c(-c2ccccc2F)nnc(C)c1-c1c(F)cc(F)cc1F [Compound 42]
Test E rating (disease control, tomato early blight) (Alternaria solani; 40 ppm (marked *)): 41* %
Test D rating (disease control, wheat glume blotch) (Septoria nodorum; 40 ppm (marked *)): 0* %
Test A rating (disease control, wheat powdery mildew) (Erysiphe graminis; 40 ppm (marked *)): 78* %
Test F rating (disease control, tomato Botrytis) (Botrytis cinerea; 40 ppm (marked *)): 100* %
Test C rating (disease control, wheat leaf blotch) (Septoria tritici; 40 ppm (marked *)): 100* %
Test B rating (disease control, wheat leaf rust) ([1]; 40 ppm (marked *)): 99* %

COc1cc(OC)cc(-c2c(-c3ccccc3F)nnc(C)c2-c2ccccc2)c1 [Compound 4]
Test E rating (disease control, tomato early blight) (Alternaria solani; 200 ppm): 28%
Test D rating (disease control, wheat glume blotch) (Septoria nodorum; 200 ppm): 0%
Test A rating (disease control, wheat powdery mildew) (Erysiphe graminis; 200 ppm): 82%
Test F rating (disease control, tomato Botrytis) (Botrytis cinerea; 200 ppm): 94%
Test C rating (disease control, wheat leaf blotch) (Septoria tritici; 200 ppm): 84%
Test B rating (disease control, wheat leaf rust) ([1]; 200 ppm): 96%

COc1cc(OC)cc(-c2c(-c3ccccc3)nnc(C)c2-c2ccc(Cl)cc2)c1 [Compound 6]
Test E rating (disease control, tomato early blight) (Alternaria solani; 200 ppm): 36%
Test D rating (disease control, wheat glume blotch) (Septoria nodorum; 200 ppm): 0%
Test A rating (disease control, wheat powdery mildew) (Erysiphe graminis; 200 ppm): 79%
Test F rating (disease control, tomato Botrytis) (Botrytis cinerea; 200 ppm): 67%
Test C rating (disease control, wheat leaf blotch) (Septoria tritici; 200 ppm): 97%
Test B rating (disease control, wheat leaf rust) ([1]; 200 ppm): 97%

C=C(C)c1nnc(C)c(-c2ccc(OC)cc2)c1-c1cc(OC)cc(OC)c1 [Compound 19]
Test E rating (disease control, tomato early blight) (Alternaria solani; 200 ppm): 100%
Test D rating (disease control, wheat glume blotch) (Septoria nodorum; 200 ppm): 0%
Test A rating (disease control, wheat powdery mildew) (Erysiphe graminis; 200 ppm): 61%
Test F rating (disease control, tomato Botrytis) (Botrytis cinerea; 200 ppm): 98%
Test C rating (disease control, wheat leaf blotch) (Septoria tritici; 200 ppm): 98%
Test B rating (disease control, wheat leaf rust) ([1]; 200 ppm): 98%

COc1cc(OC)c(Cl)c(-c2c(-c3ccccc3)nnc(C)c2-c2c(F)cc(F)cc2F)c1 [Compound 36, 4-(2-chloro-3,5-dimethoxyphenyl)-6-methyl-3-phenyl-5-(2,4,6-trifluorophenyl)pyridazine]
pest or weed control at 40 ppm (Alternaria solani; 40 ppm (marked *)): 99%
pest or weed control at 40 ppm (Septoria nodorum; 40 ppm (marked *)): 100%
pest or weed control at 40 ppm (Erysiphe graminis; 40 ppm (marked *)): 98%
pest or weed control at 40 ppm (Botrytis cinerea; 40 ppm (marked *)): 99%
pest or weed control at 40 ppm (Septoria tritici; 40 ppm (marked *)): 99%
pest or weed control at 40 ppm ([1]; 40 ppm (marked *)): 99%

COc1cc(OC)cc(-c2c(-c3ccccc3F)nnc(C)c2-c2c(F)cccc2F)c1 [Compound 22]
Test E rating (disease control, tomato early blight) (Alternaria solani; 40 ppm (marked *)): 100* %
Test D rating (disease control, wheat glume blotch) (Septoria nodorum; 40 ppm (marked *)): 84* %
Test A rating (disease control, wheat powdery mildew) (Erysiphe graminis; 40 ppm (marked *)): 99* %
Test F rating (disease control, tomato Botrytis) (Botrytis cinerea; 40 ppm (marked *)): 95* %
Test C rating (disease control, wheat leaf blotch) (Septoria tritici; 40 ppm (marked *)): 97* %
Test B rating (disease control, wheat leaf rust) ([1]; 40 ppm (marked *)): 100* %

COc1cc(OC)cc(-c2c(-c3ccccc3F)nnc(C)c2-c2c(F)cc(OCCCN(C)C)cc2F)c1 [Compound 29, 3-[4-[5-(3,5-dimethoxyphenyl)-6-(2-fluorophenyl)-3-methyl-4-pyridazinyl]-3,5-difluorophenoxy]-N,N-dimethyl-1-propanamine]
pest or weed control at 200 ppm (Alternaria solani; 200 ppm): 99%
pest or weed control at 200 ppm (Septoria nodorum; 200 ppm): 92%
pest or weed control at 200 ppm (Erysiphe graminis; 200 ppm): 92%
pest or weed control at 200 ppm (Botrytis cinerea; 200 ppm): 99%
pest or weed control at 200 ppm (Septoria tritici; 200 ppm): 98%
pest or weed control at 200 ppm ([1]; 200 ppm): 100%

COc1cc(OC)cc(-c2c(-c3cccc(F)c3F)nnc(C)c2-c2ccccc2)c1 [Compound 10]
Test E rating (disease control, tomato early blight) (Alternaria solani; 200 ppm): 88%
Test D rating (disease control, wheat glume blotch) (Septoria nodorum; 200 ppm): 0%
Test A rating (disease control, wheat powdery mildew) (Erysiphe graminis; 200 ppm): 97%
Test F rating (disease control, tomato Botrytis) (Botrytis cinerea; 200 ppm): 95%
Test C rating (disease control, wheat leaf blotch) (Septoria tritici; 200 ppm): 99%
Test B rating (disease control, wheat leaf rust) ([1]; 200 ppm): 99%

COc1cc(OC)c(Cl)c(-c2c(-c3ccccc3F)nnc(Cl)c2-c2c(F)cc(F)cc2F)c1 [Compound 43]
Test E rating (disease control, tomato early blight) (Alternaria solani; 40 ppm (marked *)): 99* %
Test D rating (disease control, wheat glume blotch) (Septoria nodorum; 40 ppm (marked *)): 100* %
Test A rating (disease control, wheat powdery mildew) (Erysiphe graminis; 40 ppm (marked *)): 99* %
Test F rating (disease control, tomato Botrytis) (Botrytis cinerea; 40 ppm (marked *)): 100* %
Test C rating (disease control, wheat leaf blotch) (Septoria tritici; 40 ppm (marked *)): 97* %
Test B rating (disease control, wheat leaf rust) ([1]; 40 ppm (marked *)): 100* %

COc1cc(OC)cc(-c2c(-c3ccccc3F)nnc(OC)c2-c2c(F)cc(F)cc2F)c1 [Compound 26, 4-(3,5-dimethoxyphenyl)-3-(2-fluorophenyl)-6-methoxy-5-(2,4,6-trifluorophenyl)pyridazine]
pest or weed control at 200 ppm (Alternaria solani; 200 ppm): 95%
pest or weed control at 200 ppm (Septoria nodorum; 200 ppm): 100%
pest or weed control at 200 ppm (Erysiphe graminis; 200 ppm): 90%
pest or weed control at 200 ppm (Botrytis cinerea; 200 ppm): 99%
pest or weed control at 200 ppm (Septoria tritici; 200 ppm): 99%
pest or weed control at 200 ppm ([1]; 200 ppm): 100%

CNCCCOc1cc(F)c(-c2c(C)nnc(-c3ccccc3F)c2-c2cc(OC)cc(OC)c2)c(F)c1 [Compound 30, 3-[4-[5-(3,5-dimethoxyphenyl)-6-(2-fluorophenyl)-3-methyl-4-pyridazinyl]-3,5-difluorophenoxy]-N-methyl-1-propanamine]
pest or weed control at 200 ppm (Alternaria solani; 200 ppm): 98%
pest or weed control at 200 ppm (Septoria nodorum; 200 ppm): 98%
pest or weed control at 200 ppm (Erysiphe graminis; 200 ppm): 89%
pest or weed control at 200 ppm (Botrytis cinerea; 200 ppm): 100%
pest or weed control at 200 ppm (Septoria tritici; 200 ppm): 99%
pest or weed control at 200 ppm ([1]; 200 ppm): 100%

COc1cncc(-c2c(-c3ccccc3F)nnc(Cl)c2-c2c(F)cc(F)cc2F)c1 [Compound 44, 3-chloro-6-(2-fluorophenyl)-5-(5-methoxy-3-pyridinyl)-4-(2,4,6-trifluorophenyl)pyridazine]
pest or weed control at 40 ppm (Alternaria solani; 40 ppm (marked *)): 100%
pest or weed control at 40 ppm (Septoria nodorum; 40 ppm (marked *)): 100%
pest or weed control at 40 ppm (Erysiphe graminis; 40 ppm (marked *)): 100%
pest or weed control at 40 ppm (Botrytis cinerea; 40 ppm (marked *)): 100%
pest or weed control at 40 ppm (Septoria tritici; 40 ppm (marked *)): 99%
pest or weed control at 40 ppm ([1]; 40 ppm (marked *)): 99%
